Structures can show the parent of a compound that is named as a salt. Marks after values point to notes of the source that are not given here.
Tested on: male rats
Experiment: Plasma metabolite profiling (GC-MS, LC-MS, SPE-LC-MS) in male rats dosed once daily over 28 days (OECD 407)
Format: in vivo, rat
Protocol: Each dose group in the studies consisted of five rats per sex. Additional groups of each 5 male and female animals served as controls. […] All animals of the animal population were kept under the same constant temperature (20-24±3° C.) and the same constant humidity (30-70%). The animals of the animal population were fed ad libitum. The food to be used was essentially free of chemical or microbial contaminants. Drinking water was also offered ad libitum. Accordingly, the water was free of chemical and microbial contaminants as laid down in the European Drinking Water Directive 98/83/EG. The illumination period was 12 hours light followed by 12 hours darkness (12 hours light, from 6:00 to 18:00, and 12 hours darkness, from 18:00 to 6:00). […] The test substances (compounds) in the Tables 1 to 17 below were dosed and administered as described in the Table 18.
In the morning of day 7, 14, and 28, blood was taken from the retroorbital venous plexus from fasted anaesthetized animals. From each animal, 1 ml of blood was collected with EDTA as anticoagulant. The samples were centrifuged for generation of plasma. All plasma samples were covered with a N2 atmosphere and then stored at −80° C. until analysis.
For mass spectrometry-based metabolite profiling analyses plasma samples were extracted and a polar and a non-polar (lipid) fraction was obtained. For GC-MS analysis, the non-polar fraction was treated with methanol under acidic conditions to yield the fatty acid methyl esters. Both fractions were further derivatised with O-methyl-hydroxyamine hydrochloride and pyridine to convert Oxogroups to O-methyloximes and subsequently with a silylating agent before analysis. In LC-MS analysis, both fractions were reconstituted in appropriate solvent mixtures. HPLC was performed by gradient elution on reversed phase separation columns. Mass spectrometric detection which allows target and high sensitivity MRM (Multiple Reaction Monitoring) profiling in parallel to a full screen analysis was applied as described in WO2003073464.
Steroids and their metabolites were measured by online SPE-LC-MS (Solid phase extraction-LC-MS).
Following comprehensive analytical validation steps, the data for each analyte were normalized against data from pool samples. These samples were run in parallel through the whole process to account for process variability. The significance of treatment group values specific for sex, treatmentduration and metabolite was determined by comparing means of the treated groups to the means of the respective untreated control groups using WELCH-test and quantified with treatment ratios versus control and p-values.
The identification of the most important biomarkers per toxicity pattern was done by a ranking of the analytes in the tables below. Therefore the metabolic changes in reference treatments of a given pattern (shown in the table) were compared with changes of the same metabolite in other unrelated treatments. […] The maximum absolute value of the respective TVALUE was taken to indicate the most important metabolite for the pattern.

For `CNCCC(Oc1ccc(C(F)(F)F)cc1)c1ccccc1` (stereo not drawn) [Fluoxetine hydrochloride], the “3-O-Methylsphingosine (d18:1)” value (m7, high dose, Table 10a) was 1.33, the “5-O-Methylsphingosine (d18:1)” value (m7, high dose, Table 10a) was 1.43 and the Cysteine (m7, high dose, Table 10a) was 1.81 *. For the same compound, the “Lignoceric acid (C24:0)” value (m7, high dose, Table 10a) was 1.33, the “Nervonic acid (C24:cis[15]1)” value (m7, high dose, Table 10a) was 1.37 and the “Oleic acid (C18:cis[9]1)” value (m7, high dose, Table 10a) was 0.83. The “Stearic acid (C18:0)” value (m7, high dose, Table 10a) was 1.21, the alpha-Tocopherol (m7, high dose, Table 10a) was 1.37 and the “threo-Sphingosine (d18:1)” value (m7, high dose, Table 10a) was 1.2. For the same compound, the “Oleic acid (C18:cis[9]1)” value (m7, high dose, Table 10b) was 0.83^, the “Phosphatidylcholine (C16:0, C16:0)” value (m7, high dose, Table 10b) was 0.99^ and the “Thyroxine (T4)” value (m7, high dose, Table 10b) was 0.42 *. For the same compound, the trans-4-Hydroxyproline (m7, high dose, Table 10b) was 0.87 *, the “3-O-Methylsphingosine (d18:1)” value (m14, high dose, Table 10a) was 1.43^ and the “5-O-Methylsphingosine (d18:1)” value (m14, high dose, Table 10a) was 1.67 *. For the same compound, the Cysteine (m14, high dose, Table 10a) was 2.03 *, the “Oleic acid (C18:cis[9]1)” value (m14, high dose, Table 10a) was 0.88^ and the “Stearic acid (C18:0)” value (m14, high dose, Table 10a) was 1.2. The alpha-Tocopherol (m14, high dose, Table 10a) was 1.64 *, the “threo-Sphingosine (d18:1)” value (m14, high dose, Table 10a) was 1.45 * and the “Oleic acid (C18:cis[9]1)” value (m14, high dose, Table 10b) was 0.88 *. For the same compound, the “Thyroxine (T4)” value (m14, high dose, Table 10b) was 0.59^, the trans-4-Hydroxyproline (m14, high dose, Table 10b) was 0.83 * and the “3-O-Methylsphingosine (d18:1)” value (m28, high dose, Table 10a) was 2.23 *. For the same compound, the “5-O-Methylsphingosine (d18:1)” value (m28, high dose, Table 10a) was 2.39 *, the “Lignoceric acid (C24:0)” value (m28, high dose, Table 10a) was 1.79 * and the “Nervonic acid (C24:cis[15]1)” value (m28, high dose, Table 10a) was 1.57 *. The “Oleic acid (C18:cis[9]1)” value (m28, high dose, Table 10a) was 0.98^, the “Stearic acid (C18:0)” value (m28, high dose, Table 10a) was 1.42 * and the alpha-Tocopherol (m28, high dose, Table 10a) was 1.74 *. For the same compound, the “threo-Sphingosine (d18:1)” value (m28, high dose, Table 10a) was 2.2 *, the “Oleic acid (C18:cis[9]1)” value (m28, high dose, Table 10b) was 0.98 and the “Phosphatidylcholine (C16:0, C16:0)” value (m28, high dose, Table 10b) was 0.99. For the same compound, the “Thyroxine (T4)” value (m28, high dose, Table 10b) was 0.72, the trans-4-Hydroxyproline (m28, high dose, Table 10b) was 0.72 * and the Cysteine (rat, in vivo) was 1.37 *. The “Lignoceric acid (C24:0)” value (rat, in vivo) was 1.35^, the “Nervonic acid (C24:cis[15]1)” value (rat, in vivo) was 1.68^ and the “Phosphatidylcholine (C16:0, C16:0)” value (rat, in vivo) was 1.03^.
